# Measurements from PubChem BioAssay AID1845207 (Molecular Pharmacology Branch, DTP, NCI, 2023).
# pIC50: −log10 of the molar value. Where “and” joins values, the source holds several entries; their conditions need not be identical. Equal entries are not always repeated.
# System: NCI-H1876 tumor spheroid viability
# Experiment: Anticancer human tumor NCI-H1876 cell line growth inhibition;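 also: spheroids exposed to compounds for seven days before the viability read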;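 as to viability, T/C: percent of DMSO vehicle control viability so 100% = vehicle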
# Details: spheroids with HUVEC and MSC; for viability, T/C: stronger effect = lower value
# Procedure, shortened: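 Complex tumor spheroids combined malignant cells with endothelial cells and mesenchymal stem cells. DNA-damaging drugs and DNA repair inhibitors were tested alone and in combination, at half-log dilutions down from clinical Cmax (top 10 microM if Cmax unknown), 0.25% DMSO final.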
# [1] = curve of first compound, second compound 0.003 µM
# [2] = curve of first compound, second compound 0.00949 µM
# [3] = curve of first compound, second compound 0.03 µM
# [4] = curve of first compound, second compound 0.0949 µM
# [5] = curve of first compound, second compound 0.3 µM
# [6] = second compound 0.003 µM, first compound 0.0316 µM
# [7] = second compound 0.003 µM, first compound 0.1 µM
# [8] = second compound 0.003 µM, first compound 0.316 µM
# [9] = second compound 0.003 µM, first compound 1 µM
# [10] = second compound 0.003 µM, first compound 3.16 µM
# [11] = second compound 0.003 µM, first compound 10 µM
# [12] = second compound 0.00949 µM, first compound 0.0316 µM
# [13] = second compound 0.00949 µM, first compound 0.1 µM
# [14] = second compound 0.00949 µM, first compound 0.316 µM
# [15] = second compound 0.00949 µM, first compound 1 µM
# [16] = second compound 0.00949 µM, first compound 3.16 µM
# [17] = second compound 0.00949 µM, first compound 10 µM
# [18] = second compound 0.03 µM, first compound 0.0316 µM
# [19] = second compound 0.03 µM, first compound 0.1 µM
# [20] = second compound 0.03 µM, first compound 0.316 µM
# [21] = second compound 0.03 µM, first compound 1 µM
# [22] = second compound 0.03 µM, first compound 3.16 µM
# [23] = second compound 0.03 µM, first compound 10 µM
# [24] = second compound 0.0949 µM, first compound 0.0316 µM
# [25] = second compound 0.0949 µM, first compound 0.1 µM
# [26] = second compound 0.0949 µM, first compound 0.316 µM
# [27] = second compound 0.0949 µM, first compound 1 µM
# [28] = second compound 0.0949 µM, first compound 3.16 µM
# [29] = second compound 0.0949 µM, first compound 10 µM
# [30] = second compound 0.3 µM, first compound 0.0316 µM
# [31] = second compound 0.3 µM, first compound 0.1 µM
# [32] = second compound 0.3 µM, first compound 0.316 µM
# [33] = second compound 0.3 µM, first compound 1 µM
# [34] = second compound 0.3 µM, first compound 3.16 µM
# [35] = second compound 0.3 µM, first compound 10 µM
smiles,measurement,setting,value
CC1COCCN1c1cc(-c2ccnn2C)c2ccnc(-c3ccn[nH]3)c2n1 (stereo unspecified) + CC[C@@]1(O)C(=O)OCc2c1cc1n(c2=O)Cc2cc3c(CN(C)C)c(O)ccc3nc2-1,pIC50,[1],> 7.50
same,pIC50,[2],> 7.50
same,pIC50,[3],> 7.50
same,pIC50,[4],> 7.50
same,pIC50,[5],> 7.50
same,"viability, T/C",[6],16.2%
same,"viability, T/C",[7],9.61%
same,"viability, T/C",[8],6.33%
same,"viability, T/C",[9],5.32%
same,"viability, T/C",[10],2.8%
same,"viability, T/C",[11],3.12%
same,"viability, T/C",[12],6.81%
same,"viability, T/C",[13],5.86%
same,"viability, T/C",[14],5.29%
same,"viability, T/C",[15],3.16%
same,"viability, T/C",[16],2.62%
same,"viability, T/C",[17],4.77%
same,"viability, T/C",[18],3.3%
same,"viability, T/C",[19],3.5%
same,"viability, T/C",[20],3.31%
same,"viability, T/C",[21],2.97%
same,"viability, T/C",[22],2.42%
same,"viability, T/C",[23],2.82%
same,"viability, T/C",[24],2.58%
same,"viability, T/C",[25],2.23%
same,"viability, T/C",[26],2.26%
same,"viability, T/C",[27],2.14%
same,"viability, T/C",[28],2.41%
same,"viability, T/C",[29],2.01%
same,"viability, T/C",[30],2.18%
same,"viability, T/C",[31],2.1%
same,"viability, T/C",[32],2.02%
same,"viability, T/C",[33],2.7%
same,"viability, T/C",[34],1.91%
same,"viability, T/C",[35],1.92%
Cn1ncnc1[C@H]1c2n[nH]c(=O)c3cc(F)cc(c23)N[C@@H]1c1ccc(F)cc1,"viability, T/C",compound 0.00949 µM,88.9% and 68.4% and 87.4%
same,"viability, T/C",compound 0.03 µM,73.5% and 65.7% and 71.3%
same,"viability, T/C",compound 0.0949 µM,52.3% and 49.7% and 39.4%
same,"viability, T/C",compound 0.3 µM,28.3% and 25.2% and 21.1%
same,"viability, T/C",compound 3 µM,0.28% and 7.28% and 3.57%
same,pIC50,curve of compound,6.98 and 7.07 and 7.17
Cc1cc(C)c(CNC(=O)c2cc(-c3ccc(CN4CCOCC4)cc3)cc3c2cnn3C2CCCC2)c(=O)[nH]1 + CC[C@@]1(O)C(=O)OCc2c1cc1n(c2=O)Cc2cc3c(CN(C)C)c(O)ccc3nc2-1,pIC50,[1],6.29
same,pIC50,[2],> 7.50
same,pIC50,[3],> 7.50
same,pIC50,[4],> 7.50
same,pIC50,[5],> 7.50
same,"viability, T/C",[6],78.6%
same,"viability, T/C",[7],70%
same,"viability, T/C",[8],56.6%
same,"viability, T/C",[9],39%
same,"viability, T/C",[10],27.7%
same,"viability, T/C",[11],10.5%
same,"viability, T/C",[12],40.9%
same,"viability, T/C",[13],39.6%
same,"viability, T/C",[14],35.1%
same,"viability, T/C",[15],26.2%
same,"viability, T/C",[16],22%
same,"viability, T/C",[17],10.5%
same,"viability, T/C",[18],15.6%
same,"viability, T/C",[19],15.2%
same,"viability, T/C",[20],17.6%
same,"viability, T/C",[21],17.8%
same,"viability, T/C",[22],16.5%
same,"viability, T/C",[23],9.6%
same,"viability, T/C",[24],8.57%
same,"viability, T/C",[25],9.17%
same,"viability, T/C",[26],10.2%
same,"viability, T/C",[27],12.2%
same,"viability, T/C",[28],12%
same,"viability, T/C",[29],11.9%
same,"viability, T/C",[30],3.79%
same,"viability, T/C",[31],4.57%
same,"viability, T/C",[32],4.59%
same,"viability, T/C",[33],6.24%
same,"viability, T/C",[34],7.93%
same,"viability, T/C",[35],7.45%
Cc1cc(C)c(CNC(=O)c2cc(-c3ccc(CN4CCOCC4)cc3)cc3c2cnn3C2CCCC2)c(=O)[nH]1 + COc1cc2c(cc1O)CCNC21CSC2c3c(OC(C)=O)c(C)c4c(c3C(COC1=O)N1C(O)C3Cc5cc(C)c(OC)c(O)c5C(C21)N3C)OCO4,pIC50,"curve of first compound, second compound 30 pM",< 5.00
same,pIC50,"curve of first compound, second compound 94.9 pM",< 5.00
same,pIC50,"curve of first compound, second compound 0.0003 µM",> 7.50
same,pIC50,"curve of first compound, second compound 0.000949 µM",> 7.50
same,pIC50,[1],> 7.50
same,"viability, T/C","second compound 30 pM, first compound 0.0316 µM",103%
same,"viability, T/C","second compound 30 pM, first compound 0.1 µM",101%
same,"viability, T/C","second compound 30 pM, first compound 0.316 µM",104%
same,"viability, T/C","second compound 30 pM, first compound 1 µM",104%
same,"viability, T/C","second compound 30 pM, first compound 3.16 µM",104%
same,"viability, T/C","second compound 30 pM, first compound 10 µM",85.3%
same,"viability, T/C","second compound 94.9 pM, first compound 0.0316 µM",93.1%
same,"viability, T/C","second compound 94.9 pM, first compound 0.1 µM",94.2%
same,"viability, T/C","second compound 94.9 pM, first compound 0.316 µM",94.1%
same,"viability, T/C","second compound 94.9 pM, first compound 1 µM",91.5%
same,"viability, T/C","second compound 94.9 pM, first compound 3.16 µM",93.2%
same,"viability, T/C","second compound 94.9 pM, first compound 10 µM",63.8%
same,"viability, T/C","second compound 0.0003 µM, first compound 0.0316 µM",29.7%
same,"viability, T/C","second compound 0.0003 µM, first compound 0.1 µM",33.7%
same,"viability, T/C","second compound 0.0003 µM, first compound 0.316 µM",34.9%
same,"viability, T/C","second compound 0.0003 µM, first compound 1 µM",27.2%
same,"viability, T/C","second compound 0.0003 µM, first compound 3.16 µM",28.6%
same,"viability, T/C","second compound 0.0003 µM, first compound 10 µM",17.4%
same,"viability, T/C","second compound 0.000949 µM, first compound 0.0316 µM",2.79%
same,"viability, T/C","second compound 0.000949 µM, first compound 0.1 µM",5.13%
same,"viability, T/C","second compound 0.000949 µM, first compound 0.316 µM",3.54%
same,"viability, T/C","second compound 0.000949 µM, first compound 1 µM",3.83%
same,"viability, T/C","second compound 0.000949 µM, first compound 3.16 µM",3.88%
same,"viability, T/C","second compound 0.000949 µM, first compound 10 µM",4.21%
same,"viability, T/C",[6],0.62%
same,"viability, T/C",[7],0.99%
same,"viability, T/C",[8],0.83%
same,"viability, T/C",[9],1.17%
same,"viability, T/C",[10],0.68%
same,"viability, T/C",[11],0.88%
